Test results reported in US8686147B2, “Compound with serotoninergic activity, process for preparing it and pharmaceutical composition comprising it” (Aziende Chimiche Riunite Angelini Francesco A.C.R.A.F. …, priority 2009, dated 2014).

Experiments:
5-HT4 serotonin receptor = biological target: T1, 5-HT4 serotonin receptor (Cavia porcellus, UniProt O70528); test: Binding to the 5-HT4 serotonin receptor (radioligand binding, homogenate of guinea pig striatum); conditions: six concentrations, read-out: 5-HT4 (pKi) (converted)
T1 construct: The starting materials used were an homogenate of guinea pig striatum; from tissue; host or cells: guinea pig striatum homogenate
T1 sequence (O70528 whole entry): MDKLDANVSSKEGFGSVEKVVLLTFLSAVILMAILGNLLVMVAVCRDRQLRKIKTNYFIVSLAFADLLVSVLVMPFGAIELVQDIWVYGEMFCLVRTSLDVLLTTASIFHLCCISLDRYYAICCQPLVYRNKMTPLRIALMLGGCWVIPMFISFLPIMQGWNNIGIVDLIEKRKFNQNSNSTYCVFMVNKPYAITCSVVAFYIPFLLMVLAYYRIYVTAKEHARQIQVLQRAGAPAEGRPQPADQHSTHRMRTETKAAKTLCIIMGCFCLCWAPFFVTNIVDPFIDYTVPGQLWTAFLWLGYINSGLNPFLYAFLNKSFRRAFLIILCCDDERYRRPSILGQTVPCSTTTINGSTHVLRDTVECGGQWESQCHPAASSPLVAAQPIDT
Method: (§1) Confirmation of the binding to the serotoninergic receptors was performed by means of a biochemical test on purified membranes from recombinant human cells that stably express the specific receptors or from selected animal tissues as described in particular in Grossman C.
(§2) Confirmation of the binding to the serotoninergic receptors was made using purified membranes from selected animal tissues or from recombinant human cells that stably express the specific receptors.
Binding to the 5-HT4 serotonin receptor was performed using standard methods described in: Grossman C. […] The test compounds were tested at six concentrations to obtain the pKi values of the individual compounds.

[1] = biological target: T2, human 5-HT2A serotonin receptor (Homo sapiens, UniProt P28223); test: Binding to the human 5-HT2A serotonin receptor; conditions: human 5-HT2A receptor, six concentrations; for Ki: read-out: 5-HT2 (pKi) (converted)
T2 construct: expressed in transfected cells
T2 sequence (P28223 whole entry): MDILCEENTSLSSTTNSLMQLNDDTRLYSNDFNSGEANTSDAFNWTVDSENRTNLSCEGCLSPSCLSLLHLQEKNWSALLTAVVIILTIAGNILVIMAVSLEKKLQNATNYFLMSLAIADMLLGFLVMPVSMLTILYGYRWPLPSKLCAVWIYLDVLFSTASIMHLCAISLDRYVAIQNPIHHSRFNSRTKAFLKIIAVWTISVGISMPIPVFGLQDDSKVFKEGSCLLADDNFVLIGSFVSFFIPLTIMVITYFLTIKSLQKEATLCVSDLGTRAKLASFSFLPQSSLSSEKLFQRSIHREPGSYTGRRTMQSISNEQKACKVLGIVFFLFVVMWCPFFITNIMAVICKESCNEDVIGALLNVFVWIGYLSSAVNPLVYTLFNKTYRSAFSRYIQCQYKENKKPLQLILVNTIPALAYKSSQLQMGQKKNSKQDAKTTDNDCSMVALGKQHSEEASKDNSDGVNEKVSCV
Method: as §1, with “C. J. et al. (1993), Br. J. Pharmacol. 109: 618-624, Bonhaus D. W. et al. (1995), Br. J. Pharmacol. 115(4): 622-628; and Saucier C. et al. (1997), J. Neurochem. 68(5): 1998-2011.” for “C.”
as §2
Binding to the human 5-HT2A serotonin receptor was performed via the standard method described in Bonhaus, D. W., Bach C., De Souza A., Salazar F. H., Matsuoka B. D., Zuppan P., Chan H. W., Eglen R. M. (1995): “The pharmacology and distribution of human 5-hydroxytryptamine 2B (5-HT2B) receptor gene products: comparison with 5-HT2A and 5-HT2C receptors.” Br. J. Pharmacol. 115(4): 622-628; and Saucier C., Albert P. R. (1997): “Identification of an endogenous 5-hydroxytryptamine 2A receptor in NIH-3T3 cells: agonist-induced down-regulation involves decreases in receptor RNA and number.” J. Neurochem. 68(5): 1998-2011. The test compounds were tested at six concentrations to obtain the pKi values of the individual compounds.
The values of affinity for the 5-HT4 and 5-HT2A receptor of a number of compounds of formula (I) according to the present invention are given, respectively, in Tables 2 and 3, and expressed as pKi, the value of which is proportionately greater the greater the affinity of the compound for the receptor.

Compound | Ki (5-HT4 serotonin receptor) [nM] | Ki [1] [nM] | melting point [°C] | 5-HT2 (pKi) [1]
CC(=O)Nc1ccc(CCN2CCC(COc3nc4ccccc4c4cn(C)cc34)CC2)cc1 [Compound 13, 4-[(1-(4-Acetamidophenylethyl)piperid-4-yl)methyloxy]-2-methyl-2H-pyrrolo[3,4-c]quinoline] | 1.86 | > 1000 | – | –
Cn1cc2c(OCC3CCN(CC(=O)Nc4ccccc4)CC3)nc3ccccc3c2c1 [Compound 6, N-Phenyl-2-{4-[2-methyl-2H-pyrrolo[3,4-c]quinolin-4-yloxy-methyl]piperid-1-yl}acetamide] | 132 | – | – | –
Cl.Cn1cc2c(OCC3CCN(CC(=O)Nc4ccccc4)CC3)nc3ccccc3c2c1 | – | – | 163 to 165 | –
Cl.Cn1cc2c(OCC3CCN(CCc4ccc(N)cc4)CC3)nc3ccccc3c2c1 [Compound 11a, 4-[(1-(4-Aminophenylethyl)piperid-4-yl)methyloxy]-2-methyl-2H-pyrrolo[3,4-c]quinoline hydrochloride] | 4.57 | – | 165 to 167 | 6.6
Cn1cc2c(OCC3CCN(CCc4ccccc4)CC3)nc3ccccc3c2c1 [Compound 4, 4-{[1-(2-Phenyl)ethylpiperidine-4-yl]methoxy}-2-methyl-2H-pyrrolo[3,4-c]quinoline] | 1.86 | – | – | –
CCCCN1CCC(COc2nc3ccccc3c3cn(C)cc23)CC1 [Compound 3, 4-[(1-Butylpiperid-4-yl)methyloxy]-2-methyl-2H-pyrrolo[3,4-c]quinoline] | 14.8 | > 1000 | – | –
COCc1ccc(CCN2CCC(COc3nc4ccccc4c4cn(C)cc34)CC2)cc1 [Compound 16, 4-[(1-(4-Methoxymethylphenylethyl)piperid-4-yl)methyloxy]-2-methyl-2H-pyrrolo[3,4-c]quinoline] | 19.1 | – | – | –
CC(C)n1cc2c(OCC3CCN(CCc4ccccc4)CC3)nc3ccccc3c2c1 [Compound 5, 4-{[1-(2-Phenyl)ethylpiperid-4-yl]methoxy}-2-isopropyl-2H-pyrrolo[3,4-c]quinoline] | 138 | – | – | –

The next lines start with results.

Ki (5-HT4 serotonin receptor) [nM] | Ki [1] [nM] | melting point [°C] | Compound | 5-HT2 (pKi) [1]
2.29 | > 10000 | 190 to 192 | Cl.Cn1cc2c(OCC3CCN(CCN4CCOCC4)CC3)nc3ccccc3c2c1 [Compound 9a, 4-{[1-(2-(4-Morpholinyl)ethyl)piperid-4-yl]methyloxy}-2-methyl-2H-pyrrolo[3,4-c]quinoline hydrochloride] | –
2.24 | > 10000 | – | Cn1cc2c(OCC3CCN(CCc4ccc(C(=O)O)cc4)CC3)nc3ccccc3c2c1 [Compound 12a] | –
